Data set [1] can be described thus: Pharmacokinetic studies of compounds in mice. Particulars: male mice, intragastric administration 10 mg/kg, plasma. In kind it is in vivo. Here is the method: Activity Assay Example 3: Pharmacokinetic Studies of Compounds in Mice
In this test, 3 male mice were selected and divided into 1 group, 3 mice/group. All animals were fasted overnight before administration.
The intragastric administration dose was 10 mg/kg, and the administration volume was 10 mL/kg.
2.2 Preparation of Drug Solution
According to the animal body weight combined with the administration dose, the amount of the required drug solution was calculated. An appropriate amount of the test substance was weighed, added with 5% of the final volume of ethanol for dissolution, then added with 5% of the final volume of SolutolHS15, and finally added with PBS to the final volume, and mixed by vortex and fully dissolved to obtain a solution for intragastric administration (1 mg/mL). All solutions were prepared for immediate use.
2.3 Method of Administration
Before administration, the drug solution was placed on a magnetic stirrer in the animal laboratory and stirred for at least 10 min. During the administration process, vortex was continued to ensure uniformity of the drug solution. The theoretical volume of gavage administration was 10 mL/kg, which was administered with a syringe equipped with a gavage needle.
Before administration, the animals were weighed and the body weight of the animals involved in the experiment was recorded, and the administration volume of each animal was calculated according to the body weight. After administration, animals were promptly transferred back to the experimental cages to collect samples.
2.4 Observation of Animal Status
After administration, whether animals had abnormal reactions was observed immediately. If there were no abnormal reactions, animals were observed twice a day during the experiment. If abnormal reactions were found, they should be recorded in time, and the number of observations should be increased until the animals returned to normal or to the end of the experiment.
2.5 Sample Collection and Preservation
All experimental animals were fasted overnight before administration, and blood was collected at corresponding time points into blood collection tubes containing heparin sodium anticoagulant. After the whole blood was collected, the blood collection tube was gently shaken and placed on ice immediately, and then centrifuged (4° C., 4000 rpm, 10 min) to collect supernatant plasma samples, which were stored in a refrigerator at −80° C. before analysis.
2.6 Plasma Sample Processing and Analysis
The collected plasma samples were handed over to the Pharmacokinetic department for sample extraction, and the test substances in the plasma were extracted by protein precipitation method using organic reagents containing internal standards (acetonitrile:plasma=4:1, v/v). The extracted processed samples were submitted for quantitative concentration analysis by LC-MS/MS. According to the plasma concentration of each animal obtained by the analysis, software Kinetica (version 5.0) was used to calculate the main pharmacokinetic parameter eAUC30-120 according to the non-compartment model to evaluate the exposure amount; the test results are shown in Table 2: […]

Data set [2] deals with T1, AR (Homo sapiens, UniProt P10275, T878A).
T1 sequence (P10275 1-920 T878A): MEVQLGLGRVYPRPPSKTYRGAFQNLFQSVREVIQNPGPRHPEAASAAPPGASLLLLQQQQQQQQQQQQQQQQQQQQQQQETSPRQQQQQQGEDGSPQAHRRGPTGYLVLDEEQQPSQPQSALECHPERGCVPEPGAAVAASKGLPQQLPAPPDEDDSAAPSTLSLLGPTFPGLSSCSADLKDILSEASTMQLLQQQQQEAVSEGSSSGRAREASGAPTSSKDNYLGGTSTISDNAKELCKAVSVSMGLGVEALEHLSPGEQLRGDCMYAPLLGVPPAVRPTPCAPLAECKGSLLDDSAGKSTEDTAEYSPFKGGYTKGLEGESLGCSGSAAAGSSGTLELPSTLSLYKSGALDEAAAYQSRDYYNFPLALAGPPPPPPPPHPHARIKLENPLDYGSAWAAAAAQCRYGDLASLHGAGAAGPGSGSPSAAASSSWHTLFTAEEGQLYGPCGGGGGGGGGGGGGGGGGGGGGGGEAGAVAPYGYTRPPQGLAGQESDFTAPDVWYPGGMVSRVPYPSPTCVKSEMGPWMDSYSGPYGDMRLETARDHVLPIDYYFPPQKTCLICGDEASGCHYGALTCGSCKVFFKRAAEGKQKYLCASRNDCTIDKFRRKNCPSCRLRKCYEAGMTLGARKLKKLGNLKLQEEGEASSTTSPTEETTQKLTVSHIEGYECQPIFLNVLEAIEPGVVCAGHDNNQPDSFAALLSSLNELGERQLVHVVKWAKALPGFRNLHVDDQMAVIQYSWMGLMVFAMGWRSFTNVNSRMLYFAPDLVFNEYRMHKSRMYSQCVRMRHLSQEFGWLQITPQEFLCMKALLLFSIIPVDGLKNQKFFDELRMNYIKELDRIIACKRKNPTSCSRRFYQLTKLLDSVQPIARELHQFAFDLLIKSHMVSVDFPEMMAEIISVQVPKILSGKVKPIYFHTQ
Kind of data set: Effects of compounds on AR expression in LNCaP cells (ELISA, DC50). Details: Measurement of the Effects of Drugs on the Expression of AR in Cells by ELISA Method; endogenous in cells; host or cells: LNCaP. The settings on record: 24 hours of drug treatment, AR by ELISA. In kind it is cell-based. Put shortly:
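LNCaP cells at about 15,000/well were treated for 24 h with compound at 0.0001–2 μmol/L final. AR in cell lysates was measured by ELISA (OD450). Inhibition was relative to DMSO control after blank subtraction, and DC50 was calculated from it.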

`Cc1ncsc1-c1ccc(CNC(=O)[C@@H]2C[C@@H](O)CN2C(=O)[C@@H](NC(=O)COCCCCOc2ccc(-c3ccc(N4C(=S)N(c5ccc(C#N)c(C(F)(F)F)c5F)C(=O)C4(C)C)cn3)cc2F)C(C)(C)C)cc1` [Compound A55]: the “eAUC0.5-2 h” value in data set [1] was 396 ± 79 ng·h/mL. In data set [2], this compound showed a DC50 of 38.8 nM.
The like results for `Cc1ncsc1-c1ccc([C@H](C)NC(=O)[C@@H]2C[C@@H](O)CN2C(=O)[C@@H](NC(=O)COCCCCOc2ccc(-c3ncc(N4C(=S)N(c5ccc(C#N)c(C(F)(F)F)c5F)C(=O)C4(C)C)cc3C(F)(F)F)cc2F)C(C)(C)C)cc1` [Compound A108] were, in that order, 993 ± 201 ng·h/mL and 136 nM.
The like results for `Cc1ncsc1-c1ccc(CNC(=O)[C@@H]2C[C@@H](O)CN2C(=O)[C@@H](NC(=O)COCCOCCOc2ccc(-c3ccc(N4C(=S)N(c5ccc(C#N)c(C(F)(F)F)c5F)C(=O)C4(C)C)cn3)cc2F)C(C)(C)C)cc1` [Compound A85] were, in that order, 70 ± 23 ng·h/mL and 33 nM.
Turning to `Cc1ncsc1-c1ccc(CNC(=O)[C@@H]2C[C@@H](O)CN2C(=O)[C@@H](NC(=O)COCCOc2ccc(-c3ncc(N4C(=S)N(c5ccc(C#N)c(C(F)(F)F)c5F)C(=O)C4(C)C)cc3F)cc2F)C(C)(C)C)cc1` [Compound A91], the “eAUC0.5-2 h” value in data set [1] is 3160 ± 2820 ng·h/mL. In addition, the DC50 in data set [2] worked out at 108 nM.
The like results for `Cc1ncsc1-c1ccc([C@H](C)NC(=O)[C@@H]2C[C@@H](O)CN2C(=O)[C@@H](NC(=O)COCCCCOc2ccc(-c3ncc(N4C(=S)N(c5ccc(C#N)c(C(F)(F)F)c5F)C(=O)C4(C)C)cc3F)c(C(F)(F)F)c2)C(C)(C)C)cc1` [Compound A109] were, in that order, 557 ± 108 ng·h/mL and 71.4 nM.
The like results for `Cc1ncsc1-c1ccc(CNC(=O)[C@@H]2C[C@@H](O)CN2C(=O)[C@@H](NC(=O)COCCCCOc2ccc(-c3ncc(N4C(=S)N(c5ccc(C#N)c(C(F)(F)F)c5F)C(=O)C4(C)C)cc3F)c(F)c2)C(C)(C)C)cc1` [Compound A94] were, in that order, 410 ± 38 ng·h/mL and 58.4 nM.
Regarding `Cc1ncsc1-c1ccc2[nH]c([C@@H]3C[C@@H](O)CN3C(=O)[C@@H](NC(=O)COCCCCOc3ccc(-c4ncc(N5C(=S)N(c6ccc(C#N)c(C(F)(F)F)c6F)C(=O)C5(C)C)cc4F)cc3F)C(C)(C)C)nc2c1` [Compound A138], the “eAUC0.5-2 h” value in data set [1] came out at 471 ± 288 ng·h/mL. Besides, the DC50 in data set [2] came out at 1500 nM.
The like results for `Cc1ncsc1-c1ccc(CNC(=O)[C@@H]2C[C@@H](O)CN2C(=O)[C@@H](NC(=O)COCCCCOc2ccc(-c3ccc(N4C(=S)N(c5ccc(C#N)c(C(F)(F)F)c5F)C(=O)C4(C)C)cn3)cn2)C(C)(C)C)cc1` [Compound A100] were, in that order, 720 ± 206 ng·h/mL and 18.9 nM.
`Cc1ncsc1-c1ccc(CNC(=O)[C@@H]2C[C@@H](O)CN2C(=O)[C@@H](NC(=O)COCCCCOc2c(F)cc(-c3ccc(N4C(=S)N(c5ccc(C#N)c(C(F)(F)F)c5F)C(=O)C4(C)C)cn3)cc2F)C(C)(C)C)cc1` [Compound A103]: the “eAUC0.5-2 h” value in data set [1] stood at 984 ± 617 ng·h/mL. In data set [2], this compound gave a DC50 of 152 nM.
Consider `Cc1ncsc1-c1ccc([C@H](C)NC(=O)[C@@H]2C[C@@H](O)CN2C(=O)[C@@H](NC(=O)COCCCCOc2c(F)cc(-c3ncc(N4C(=S)N(c5ccc(C#N)c(C(F)(F)F)c5F)C(=O)C4(C)C)cc3F)cc2F)C(C)(C)C)cc1` [Compound A124], for which the “eAUC0.5-2 h” value in data set [1] is 2776 ± 292 ng·h/mL. The compound also registered a DC50 in data set [2] of 188 nM.
For `Cc1ncsc1-c1ccc(CNC(=O)[C@@H]2C[C@@H](O)CN2C(=O)[C@@H](NC(=O)COCCCCCOc2ccc(-c3ncc(N4C(=S)N(c5ccc(C#N)c(C(F)(F)F)c5F)C(=O)C4(C)C)cc3F)cc2F)C(C)(C)C)cc1` [Compound A89], the “eAUC0.5-2 h” value in data set [1] stood at 501 ± 103.57 ng·h/mL. In data set [2], this compound came in with a DC50 of 72 nM.
Take `Cc1ncsc1-c1ccc(CNC(=O)[C@@H]2C[C@@H](O)CN2C(=O)[C@@H](NC(=O)COCCCCOc2c(F)cc(-c3ncc(N4C(=S)N(c5ccc(C#N)c(C(F)(F)F)c5F)C(=O)C4(C)C)cc3F)cc2F)C(C)(C)C)cc1` [Compound A77]: the “eAUC0.5-2 h” value in data set [1] came out at 1354 ± 205 ng·h/mL. For the same compound, the DC50 in data set [2] was 114 nM.
The like results for `Cc1ncsc1-c1ccc(CNC(=O)[C@@H]2C[C@@H](O)CN2C(=O)[C@@H](NC(=O)COCCCOc2ccc(-c3ccc(N4C(=S)N(c5ccc(C#N)c(C(F)(F)F)c5F)C(=O)C4(C)C)cn3)cc2F)C(C)(C)C)cc1` [Compound A72] were, in that order, 240 ± 68 ng·h/mL and 35.1 nM.
The like results for `Cc1ncsc1-c1ccc([C@H](C)NC(=O)[C@@H]2C[C@@H](O)CN2C(=O)[C@@H](NC(=O)COCCCCOc2c(F)cc(-c3ncc(N4C(=S)N(c5ccc(C#N)c(C(F)(F)F)c5F)C(=O)C4(C)C)cc3C(F)(F)F)cc2F)C(C)(C)C)cc1` [Compound A115] were, in that order, 1136 ± 164 ng·h/mL and 214 nM.
Consider `Cc1ncsc1-c1ccc(CNC(=O)[C@@H]2C[C@@H](O)CN2C(=O)[C@@H](NC(=O)COCCCCOc2ccc(-c3ncc(N4C(=S)N(c5ccc(C#N)c(C(F)(F)F)c5F)C(=O)C4(C)C)cc3C(F)(F)F)c(F)c2)C(C)(C)C)cc1` [Compound A95], for which, in data set [1], the “eAUC0.5-2 h” value was determined as 1234 ± 430 ng·h/mL. The compound also gave a DC50 in data set [2] of 106 nM.
On to `Cc1ncsc1-c1ccc(CNC(=O)[C@@H]2C[C@@H](O)CN2C(=O)[C@@H](NC(=O)COCCCCOc2ccc(-c3ccc(N4C(=S)N(c5ccc(C#N)c(C(F)(F)F)c5F)C(=O)C4(C)C)cn3)cc2Cl)C(C)(C)C)cc1` [Compound A83], for which the “eAUC0.5-2 h” value in data set [1] came to 574 ± 176 ng·h/mL. The compound further gave a DC50 in data set [2] of 87.8 nM.
The like results for `Cc1ncsc1-c1ccc(CNC(=O)[C@@H]2C[C@@H](O)CN2C(=O)[C@@H](NC(=O)COCCCCOc2ccc(-c3ncc(N4C(=S)N(c5ccc(C#N)c(C(F)(F)F)c5F)C(=O)C4(C)C)cc3C(F)(F)F)c(C(F)(F)F)c2)C(C)(C)C)cc1` [Compound A101] were, in that order, 508 ± 171 ng·h/mL and 115 nM.
Regarding `Cc1ncsc1-c1ccc(CNC(=O)[C@@H]2C[C@@H](O)CN2C(=O)[C@@H](NC(=O)COCCOCCOc2ccc(-c3ncc(N4C(=S)N(c5ccc(C#N)c(C(F)(F)F)c5F)C(=O)C4(C)C)cc3C(F)(F)F)cc2)C(C)(C)C)cc1` [Compound A93], the “eAUC0.5-2 h” value in data set [1] came out at 275 ± 116 ng·h/mL. The compound further registered a DC50 in data set [2] of 51.1 nM.
The like results for `Cc1ncsc1-c1ccc(CNC(=O)[C@@H]2C[C@@H](O)CN2C(=O)[C@@H](NC(=O)COCCCCOc2ccc(-c3ncc(N4C(=S)N(c5ccc(C#N)c(C(F)(F)F)c5F)C(=O)C4(C)C)cc3F)cc2)C(C)(C)C)cc1` [Compound A63] were, in that order, 373 ± 242 ng·h/mL and 37.9 nM.

The values are drawn from patent US12606552B2, “Bifunctional compound, preparation method therefor, and use thereof” (SUZHOU KINTOR PHARMACEUTICALS, INC., priority 2020, dated 2026).
